The text below walks through data of patent US8058437B2, “(Pyrroloquinoxalinyl) pyrazinecarbohydrazide-oxalic acid co-crystal for treatment of cancer and other diseases” (Novelix Pharmaceuticals, Inc., priority 2008, dated 2011).

In test [1] the test system is TC71luc Ewing tumor cell line. Put plainly: Ewing's sarcoma cell viability by luminescence, TC71luc. Type of test: cell-based, human. The following applies: 72 hours. As to the method: (§1) Treatment of Ewing's sarcoma with NVX-412. The TC71luc and TC32luc Ewing tumor cell lines stably express the luciferase gene. Cells were seeded into 96-well plates 24 hours before treating with the active compound to allow attachment. Cells were treated with NVX-412 for 72 hours. Serial dilutions of NVX-412 were prepared in medium from a 10 μM stock solution in DMSO. […] After 72 hours, cell viability was measured by luminescence using a Saphire2 plate reader.

Test [2] concerns TC32luc Ewing tumor cell line. Put plainly: Ewing's sarcoma cell viability by luminescence, TC32luc. Type of test: cell-based, human. Conditions: 72 hours. As to the method: as §1
For test [3], the system named is human cancer cell lines (NCI60). Put plainly: Treatment of human cancer cell lines with NVX-412 (NCI screening procedure, SRB staining). Type of test: cell-based. As to the method:
Treatment of various cancer cell lines with NVX-412. Over 60 human cancer cell lines were treated with NVX-412 according to procedures detailed by the National Cancer Institute Developmental Therapeutics Program (see dtp.nci.nih.gov/branches/btb/ivclsp.html) and Shoemaker R H (Nat. Rev. Cancer, 6, 813-823, (2006)) and references cited therein. Many of the cell lines tested are available from the American Type Culture Collection (Rockville, Md., USA). The melanoma cell line 518A2 has been described previously (Jansen et al., “Activated N-Ras Contributes to the Chemoresistance of Human Melanoma in Severe Combined Immunodeficiency (SCID) Mice by Blocking Apoptosis,” Cancer Research 57, 362-65 (1997)). A typical screening of cancer cell treatment by NVX-412 employed the following procedure.
The human tumor cell lines of the cancer screening panel were grown in RPMI 1640 medium containing 5% fetal bovine serum and 2 mM L-glutamine. For a typical screening experiment, cells were inoculated into 96 well microtiter plates in 100 μL at plating densities ranging from 5,000 to 40,000 cells/well depending on the doubling time of individual cell lines. After cell inoculation, the microtiter plates were incubated at 37° C. in 5% CO2/95% air at 100% relative humidity for 24 hours prior to the addition of NVX-412. […]
Following the addition of NVX-412, the plates were incubated for an additional 48 hours at 37° C. in 5% CO2/95% air at 100% relative humidity. […] Bound stain was subsequently solubilized with 10 mM trizma base, and the absorbance was read on an automated plate reader at a wavelength of 515 nm. […] Using the seven absorbance measurements [time zero (Tz), control growth (C), and test growth in the presence of NVX-412 at the five concentration levels (Ti)], the percentage growth was calculated at each of the NVX-412 concentration levels. Percentage growth inhibition was calculated as: [(Ti−Tz)/(C−Tz)]*100 for concentrations for which Ti≧Tz [(Ti−Tz)/Tz]*100 for concentrations for which Ti<Tz.
Three dose response parameters were calculated. […]
For orientation: The SRB assay estimates cell density from bound dye.

Consider `O=C(NNc1nc2cc(F)ccc2n2cccc12)c1cnccn1.O=C(O)C(=O)O` [NVX-412, N′-(7-fluoropyrrolo[1,2a]quinoxalin-4-yl)pyrazine-2-carbohydrazide oxalic acid co-crystal], for which the “fraction of cells remaining after three days, mean” value (“fraction of cells remaining” for short) was 1.00 in test [1] (TC71, NVX-412 5 nM); 0.97 in test [1] (TC71, NVX-412 10 nM); 0.95 in test [1] (TC71, NVX-412 25 nM); 0.92 in test [1] (TC71, NVX-412 50 nM); 0.76 in test [1] (TC71, NVX-412 75 nM); 0.50 in test [1] (TC71, NVX-412 100 nM). The “fraction of cells remaining” value in test [1] (TC71, NVX-412 150 nM) was found to be 0.21; in test [1] (TC71, NVX-412 200 nM), 0.08; in test [1] (TC71, NVX-412 375 nM), 0.01; in test [2] (TC32, NVX-412 5 nM), 1.03; in test [2] (TC32, NVX-412 10 nM), 0.96; in test [2] (TC32, NVX-412 25 nM), 0.95. Further, the “fraction of cells remaining” value in test [2] (TC32, NVX-412 50 nM) worked out at 0.91; in test [2] (TC32, NVX-412 75 nM), 0.69; in test [2] (TC32, NVX-412 100 nM), 0.44; in test [2] (TC32, NVX-412 150 nM) it was 0.15; in test [2] (TC32, NVX-412 200 nM), 0.06; in test [2] (TC32, NVX-412 375 nM) it was 0.01. Also, in test [3] (almost all cell lines tested, 48 hours incubation), the GI50 result is “nanomolar range”. In test [3] (cancer cell lines tested, summary), the “inhibition of tumor cell growth” value is “pronounced inhibition of tumor cell growth”. For the same compound, the “effectiveness against cancer cell lines” value in test [3] (sarcoma, melanoma, and CNS cancer cell lines, summary) was “very effective”.
